Measured values as given in PubChem BioAssay (NCI).
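These data come from cells grown in 96-well plates and exposed to compound for 48 hours at five concentrations. Abbreviation: GI50, concentration required for 50% inhibition of growth. TGI is the concentration that stops growth completely.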

Tests used:
Assay in all cases: NCI tumour cell line growth inhibition, 48 h
OVCAR-4 ovarian = tested on: OVCAR-4 ovarian
HCT-116 colon = tested on: HCT-116 colon
K-562 leukemia = tested on: K-562 leukemia
NCI-H460 lung = tested on: NCI-H460 lung
HOP-18 NSCLC = tested on: HOP-18 NSCLC
SF-539 CNS = tested on: SF-539 CNS
SR leukemia = tested on: SR leukemia
KM20L2 colon = tested on: KM20L2 colon
OVCAR-3 ovarian = tested on: OVCAR-3 ovarian
HT29 colon = tested on: HT29 colon
UO-31 renal = tested on: UO-31 renal
SF-295 CNS = tested on: SF-295 CNS
SN12C renal = tested on: SN12C renal
DLD-1 colon = tested on: DLD-1 colon
A549 NSCLC = tested on: A549 NSCLC
SK-MEL-2 melanoma = tested on: SK-MEL-2 melanoma
LXFL 529 NSCLC = tested on: LXFL 529 NSCLC
MOLT-4 leukemia = tested on: MOLT-4 leukemia
SK-OV-3 ovarian = tested on: SK-OV-3 ovarian
SNB-19 CNS = tested on: SNB-19 CNS
NCI-H522 lung = tested on: NCI-H522 lung
A498 renal = tested on: A498 renal
DMS 273 small cell lung = tested on: DMS 273 small cell lung
HCT-15 colon = tested on: HCT-15 colon
UACC-62 melanoma = tested on: UACC-62 melanoma
NCI-H23 lung = tested on: NCI-H23 lung
MALME-3M melanoma = tested on: MALME-3M melanoma
ACHN renal = tested on: ACHN renal
EKVX NSCLC = tested on: EKVX NSCLC
SK-MEL-5 melanoma = tested on: SK-MEL-5 melanoma
CAKI-1 renal = tested on: CAKI-1 renal
SK-MEL-28 melanoma = tested on: SK-MEL-28 melanoma
SF-268 CNS = tested on: SF-268 CNS
SW-620 colon = tested on: SW-620 colon
OVCAR-8 ovarian = tested on: OVCAR-8 ovarian
UACC-257 melanoma = tested on: UACC-257 melanoma
HOP-62 NSCLC = tested on: HOP-62 NSCLC
NCI-H226 lung = tested on: NCI-H226 lung
KM12 colon = tested on: KM12 colon
U251 CNS = tested on: U251 CNS
SNB-75 CNS = tested on: SNB-75 CNS
IGROV1 ovarian = tested on: IGROV1 ovarian
HCC-2998 colon = tested on: HCC-2998 colon
DMS 114 small cell lung = tested on: DMS 114 small cell lung
LOX IMVI melanoma = tested on: LOX IMVI melanoma
XF 498 CNS = tested on: XF 498 CNS
COLO 205 colon = tested on: COLO 205 colon
SNB-78 CNS = tested on: SNB-78 CNS
M19-MEL melanoma = tested on: M19-MEL melanoma
HL-60(TB) leukemia = tested on: HL-60(TB) leukemia
OVCAR-5 ovarian = tested on: OVCAR-5 ovarian
TK-10 renal = tested on: TK-10 renal
786-0 renal = tested on: 786-0 renal
HOP-92 NSCLC = tested on: HOP-92 NSCLC
M14 melanoma = tested on: M14 melanoma
CCRF-CEM leukemia = tested on: CCRF-CEM leukemia
RXF 393 renal = tested on: RXF 393 renal
RPMI-8226 leukemia = tested on: RPMI-8226 leukemia

## COc1ccc(N2C(=O)C3CC(c4ccc(C)cc4)c4c([nH]c5ccccc45)C3C2=O)cc1 (centres undefined)
OVCAR-4 ovarian
  TGI: 27.5 µM
HCT-116 colon
  TGI: 17.2 µM
K-562 leukemia
  TGI: > 100 µM
NCI-H460 lung
  TGI: 31.8 µM
HOP-18 NSCLC
  TGI: 10.3 µM
SF-539 CNS
  TGI: > 62.5 µM
SR leukemia
  TGI: 4.55 µM
KM20L2 colon
  TGI: > 100 µM
OVCAR-3 ovarian
  TGI: 12.3 µM
HT29 colon
  TGI: > 100 µM
UO-31 renal
  TGI: > 70.7 µM
SF-295 CNS
  TGI: > 86.8 µM
SN12C renal
  TGI: 31.8 µM
DLD-1 colon
  TGI: > 100 µM
A549 NSCLC
  TGI: 43.3 µM
SK-MEL-2 melanoma
  TGI: > 100 µM
LXFL 529 NSCLC
  TGI: > 56.1 µM
MOLT-4 leukemia
  TGI: > 58.7 µM
SK-OV-3 ovarian
  TGI: 93 µM
SNB-19 CNS
  TGI: > 56.3 µM
NCI-H522 lung
  TGI: 51 µM
A498 renal
  TGI: 55.6 µM
DMS 273 small cell lung
  TGI: > 100 µM
HCT-15 colon
  TGI: > 89.7 µM
UACC-62 melanoma
  TGI: > 100 µM
NCI-H23 lung
  TGI: > 93.9 µM
MALME-3M melanoma
  TGI: 49.6 µM
ACHN renal
  TGI: > 63.8 µM
EKVX NSCLC
  TGI: > 100 µM
SK-MEL-5 melanoma
  TGI: > 100 µM
CAKI-1 renal
  TGI: > 100 µM
SK-MEL-28 melanoma
  TGI: 99.7 µM
SF-268 CNS
  TGI: > 76.3 µM
SW-620 colon
  TGI: > 55.3 µM
OVCAR-8 ovarian
  TGI: 38.9 µM
UACC-257 melanoma
  TGI: > 100 µM
HOP-62 NSCLC
  TGI: 53.7 µM
NCI-H226 lung
  TGI: 28.1 µM
KM12 colon
  TGI: > 100 µM
U251 CNS
  TGI: 16.8 µM
SNB-75 CNS
  TGI: 51 µM
IGROV1 ovarian
  TGI: > 79.6 µM
HCC-2998 colon
  TGI: > 100 µM
DMS 114 small cell lung
  TGI: > 86 µM
LOX IMVI melanoma
  TGI: 26.4 µM
XF 498 CNS
  TGI: > 74 µM
COLO 205 colon
  TGI: > 48.5 µM
SNB-78 CNS
  TGI: 98.7 µM
M19-MEL melanoma
  TGI: > 100 µM
HL-60(TB) leukemia
  TGI: 30.9 µM
OVCAR-5 ovarian
  TGI: > 100 µM
TK-10 renal
  TGI: > 95.3 µM
786-0 renal
  TGI: 26.6 µM
HOP-92 NSCLC
  TGI: 73.7 µM
M14 melanoma
  TGI: > 89.2 µM
CCRF-CEM leukemia
  TGI: > 45.6 µM

## [O-]c1ccccc1/C=N/c1nccs1.[O-]c1ccccc1/C=N/c1nccs1.[O]=[U+2]=[O]
OVCAR-4 ovarian
  GI50: > 100 µM
  TGI: > 100 µM
HCT-116 colon
  GI50: 11.5 µM
  TGI: > 100 µM
K-562 leukemia
  GI50: 57.1 µM
  TGI: > 100 µM
HOP-18 NSCLC
  GI50: 5.75 µM
  TGI: > 100 µM
SF-539 CNS
  GI50: 23.6 µM
  TGI: > 100 µM
KM20L2 colon
  GI50: > 100 µM
  TGI: > 100 µM
OVCAR-3 ovarian
  GI50: > 100 µM
  TGI: > 100 µM
HT29 colon
  GI50: > 100 µM
  TGI: > 100 µM
UO-31 renal
  GI50: 37.4 µM
  TGI: > 100 µM
SF-295 CNS
  GI50: > 100 µM
  TGI: > 100 µM
SN12C renal
  GI50: > 100 µM
  TGI: > 100 µM
DLD-1 colon
  GI50: 22.4 µM
  TGI: > 100 µM
A549 NSCLC
  GI50: > 100 µM
  TGI: > 100 µM
SK-MEL-2 melanoma
  GI50: > 100 µM
  TGI: > 100 µM
LXFL 529 NSCLC
  GI50: 29.1 µM
  TGI: > 100 µM
MOLT-4 leukemia
  GI50: 27.4 µM
  TGI: > 100 µM
SK-OV-3 ovarian
  GI50: > 100 µM
  TGI: > 100 µM
SNB-19 CNS
  GI50: 12.7 µM
  TGI: > 100 µM
NCI-H522 lung
  GI50: 61.4 µM
  TGI: > 100 µM
A498 renal
  GI50: 26.2 µM
  TGI: > 100 µM
DMS 273 small cell lung
  GI50: 7.15 µM
  TGI: > 100 µM
HCT-15 colon
  GI50: 22.2 µM
  TGI: > 100 µM
UACC-62 melanoma
  GI50: > 100 µM
  TGI: > 100 µM
NCI-H23 lung
  GI50: > 100 µM
  TGI: > 100 µM
MALME-3M melanoma
  GI50: > 100 µM
  TGI: > 100 µM
ACHN renal
  GI50: > 100 µM
  TGI: > 100 µM
EKVX NSCLC
  GI50: > 100 µM
  TGI: > 100 µM
SK-MEL-5 melanoma
  GI50: > 100 µM
  TGI: > 100 µM
RXF 393 renal
  GI50: > 100 µM
  TGI: > 100 µM
CAKI-1 renal
  GI50: 37.9 µM
  TGI: > 100 µM
SK-MEL-28 melanoma
  GI50: > 100 µM
  TGI: > 100 µM
SF-268 CNS
  GI50: > 100 µM
  TGI: > 100 µM
SW-620 colon
  GI50: 99.8 µM
  TGI: > 100 µM
OVCAR-8 ovarian
  GI50: > 100 µM
  TGI: > 100 µM
UACC-257 melanoma
  GI50: > 100 µM
  TGI: > 100 µM
HOP-62 NSCLC
  GI50: > 100 µM
  TGI: > 100 µM
NCI-H226 lung
  GI50: > 100 µM
  TGI: > 100 µM
KM12 colon
  GI50: > 100 µM
  TGI: > 100 µM
SNB-75 CNS
  GI50: > 100 µM
  TGI: > 100 µM
IGROV1 ovarian
  GI50: 42.4 µM
  TGI: > 100 µM
HCC-2998 colon
  GI50: 75.1 µM
  TGI: > 100 µM
DMS 114 small cell lung
  GI50: 11.1 µM
  TGI: > 100 µM
LOX IMVI melanoma
  GI50: 25.7 µM
  TGI: > 100 µM
XF 498 CNS
  GI50: 98.9 µM
  TGI: > 100 µM
COLO 205 colon
  GI50: > 100 µM
  TGI: > 100 µM
RPMI-8226 leukemia
  GI50: 37.7 µM
  TGI: > 100 µM
SNB-78 CNS
  GI50: > 100 µM
  TGI: > 100 µM
M19-MEL melanoma
  GI50: > 100 µM
  TGI: > 100 µM
HL-60(TB) leukemia
  GI50: 35.5 µM
  TGI: > 100 µM
OVCAR-5 ovarian
  GI50: > 100 µM
  TGI: > 100 µM
TK-10 renal
  GI50: 33.6 µM
  TGI: 78.7 µM
786-0 renal
  GI50: 25 µM
  TGI: > 100 µM
M14 melanoma
  GI50: > 100 µM
  TGI: > 100 µM
CCRF-CEM leukemia
  GI50: > 100 µM
  TGI: > 100 µM
